Patent US8268848B2, “Cyclopropane compound” (Eisai R&D Management Co., Ltd., priority 2010, dated 2012)
Like-named read-outs stand apart in the source and are kept apart here.

Experiments:
mice (C57BL/6NCrlCrLj) = test: Sleep experiment (EEG/EMG) in mice; format: in vivo; details: po, 10 mg/kg, 3 h
Procedure: As a method for measuring the influence of the present compound on sleep time, electroencephalogram (EEG) and electromyogram (EMG) measurements were carried out in mice (C57BL/6NCrlCrLj).
In order to measure brain waves and muscle signals, EEG and EMG electrode implantation was performed on individual mice, and the mice were then housed in a state in which they could freely move and habituate in individual recording cages for 1 week or longer. Thereafter, amplified EEG and EMG signals were digitally recorded.
Mice received either oral administration of vehicle or test compound in vehicle, after which sleep/wake behavior of mice was recorded for 3 hours.
For sleep analysis, automatic analysis software from Kissei Comtec Co., Ltd. was used to analyze EEG frequency and EMG activity signals in detail and to determine sleep and wake states. Thereafter, accumulated sleeping time over 3 hours was calculated.
The effect of the compound to increase sleep time was evaluated as the difference between sleeping time on the vehicle-administration day and the sleep time on the subsequent drug-administration day.
The minimum effective dose (MED; mg/kg) was obtained from accumulated sleep time of mice with three hours after the administration.

OX1 = target: T1, OX1 (Homo sapiens, UniProt O43613); test: Measurement of orexin receptor-binding ability ([125I]-OX-A, cell membranes, OX1); set-up: expressed in transfected cells; host or cells: CHO cells (membrane preparation)
T1 sequence (O43613 1-425): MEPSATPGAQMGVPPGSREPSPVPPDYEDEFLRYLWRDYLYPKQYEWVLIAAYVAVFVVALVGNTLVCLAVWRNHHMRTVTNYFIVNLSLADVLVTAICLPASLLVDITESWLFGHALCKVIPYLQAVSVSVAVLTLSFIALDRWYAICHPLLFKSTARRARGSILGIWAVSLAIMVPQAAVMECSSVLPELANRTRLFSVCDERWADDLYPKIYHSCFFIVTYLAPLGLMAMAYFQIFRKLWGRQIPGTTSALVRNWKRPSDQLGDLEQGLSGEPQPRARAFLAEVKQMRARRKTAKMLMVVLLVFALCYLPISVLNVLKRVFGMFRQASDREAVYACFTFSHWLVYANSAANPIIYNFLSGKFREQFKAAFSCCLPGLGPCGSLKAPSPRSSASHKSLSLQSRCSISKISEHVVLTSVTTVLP

OX2 = target: T2, OX2 (Homo sapiens, UniProt O43614); test: Measurement of orexin receptor-binding ability ([125I]-OX-A, cell membranes, OX2); set-up: expressed in transfected cells; host or cells: CHO cells (membrane preparation); details: membranes of recombinant CHO cells expressing OX2, 0.2 nM [125I]-OX-A
T2 sequence (O43614 1-444): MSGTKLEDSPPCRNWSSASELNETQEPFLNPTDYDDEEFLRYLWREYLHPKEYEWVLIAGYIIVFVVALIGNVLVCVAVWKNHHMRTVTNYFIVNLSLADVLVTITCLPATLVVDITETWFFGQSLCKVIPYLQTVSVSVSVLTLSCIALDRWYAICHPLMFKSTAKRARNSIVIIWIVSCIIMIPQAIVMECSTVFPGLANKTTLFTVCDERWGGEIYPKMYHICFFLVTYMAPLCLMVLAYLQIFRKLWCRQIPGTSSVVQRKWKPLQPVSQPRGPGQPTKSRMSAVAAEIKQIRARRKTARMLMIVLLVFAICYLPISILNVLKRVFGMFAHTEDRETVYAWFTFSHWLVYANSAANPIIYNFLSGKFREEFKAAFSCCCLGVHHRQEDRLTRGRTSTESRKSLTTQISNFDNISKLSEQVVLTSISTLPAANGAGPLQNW

[1] = membranes of recombinant CHO cells expressing OX1, 0.2 nM [125I]-OX-A, read-out: OX1 (IC50)

SMILES: COc1cc(NC(=O)[C@@H]2C[C@@]2(COc2cnc(C)nc2C)c2ccccc2)ncc1F [Example 73, (1R,2S)-2-{[(2,4-dimethylpyrimidin-5-yl)oxy]methyl}-N-(5-fluoro-4-methoxypyridin-2-yl)-2-phenylcyclopropanecarboxamide]
- Sleep extended time 10 mg/kg (min/3 hrs) (mice (C57BL/6NCrlCrLj)): 22.7 min/3 hrs
- IC50 (OX1; [1]): 3.4 nM
- IC50 (OX2; read-out: OX2 (IC50)): 5.7 nM

SMILES: COCc1nc(C)ncc1OC[C@@]1(c2ccc(F)cc2)C[C@H]1C(=O)Nc1ccc(F)cc1 [Example 203, (1R,2S)-N,2-bis(4-fluorophenyl)-2-{[(4-methoxymethyl-2-methylpyrimidin-5-yl)oxy]methyl}cyclopropanecarboxamide]
- IC50 (OX1; [1]): 215 nM
- IC50 (OX2; read-out: OX2 (IC50)): 8 nM

SMILES: COc1cccc([C@]2(COc3cnc(C)nc3C)C[C@H]2C(=O)Nc2cc(C)c(F)cn2)c1 [Example 189, (1R,2S)-2-{[(2,4-dimethylpyrimidin-5-yl)oxy]methyl}-N-(5-fluoro-4-methylpyridin-2-yl)-2-(3-methoxyphenyl)cyclopropanecarboxamide]
- IC50 (OX1; [1]): 7 nM
- IC50 (OX2; read-out: OX2 (IC50)): 4.1 nM

SMILES: Cc1ncc(OC[C@@]2(c3ccccc3)C[C@H]2C(=O)Nc2nc(C)c(C)s2)c(C)n1 [Example 4]
- IC50 (OX1; [1]): 55 nM
- IC50 (OX2; read-out: OX2 (IC50)): 38 nM

SMILES: CCc1nc(C)ncc1OC[C@@]1(c2ccccc2)C[C@H]1C(=O)Nc1ccccn1 [Example 118, (1R,2S)-2-{[(4-ethyl-2-methylpyrimidin-5-yl)oxy]methyl}-2-phenyl-N-(pyridin-2-yl)cyclopropanecarboxamide]
- IC50 (OX1; [1]): 342 nM
- IC50 (OX2; read-out: OX2 (IC50)): 24 nM

SMILES: COCc1nc(C)ncc1OC[C@@]1(c2cc(F)cc(F)c2)C[C@H]1C(=O)Nc1ccc(F)c(F)c1 [Example 221, (1R,2S)-N-(3,4-difluorophenyl)-2-(3,5-difluorophenyl)-2-{[(4-methoxymethyl-2-methylpyrimidin-5-yl)oxy]methyl}cyclopropanecarboxamide]
- IC50 (OX1; [1]): < 2 nM
- IC50 (OX2; read-out: OX2 (IC50)): 3 nM

SMILES: Cc1ncc(OCC2(c3ccc(Cl)cc3)CC2C(=O)Nc2ccc(Cl)cn2)c(C)n1 (centres unmarked) [Example 158]
- IC50 (OX1; [1]): 180 nM
- IC50 (OX2; read-out: OX2 (IC50)): 27 nM

SMILES: Cc1ncc(OC[C@@]2(c3cc(F)cc(F)c3)C[C@H]2C(=O)Nc2ccccn2)c(C)n1 [Example 131, (1R,2S)-2-(3,5-difluorophenyl)-2-{[(2,4-dimethylpyrimidin-5-yl)oxy]methyl}-N-(pyridin-2-yl)cyclopropanecarboxamide]
- IC50 (OX1): 89 nM
- IC50 (OX2; OX2 (IC50) nM): 5 nM

SMILES: CCc1nc(C)ncc1OC[C@@]1(c2cccc(F)c2)C[C@H]1C(=O)Nc1cc(C)c(F)cn1 [Example 244, (1R,2S)-2-{[(4-ethyl-2-methylpyrimidin-5-yl)oxy]methyl}-N-(5-fluoro-4-methylpyridin-2-yl)-2-(3-fluorophenyl)cyclopropanecarboxamide]
- IC50 (OX1; [1]): 3 nM
- IC50 (OX2; read-out: OX2 (IC50)): 5.3 nM

SMILES: COc1ccc(C2(COc3cnc(C)nc3C)CC2C(=O)Nc2ccc(F)cn2)cc1 (centres unmarked) [Example 181]
- IC50 (OX1): 118 nM
- IC50 (OX2; OX2 (IC50) nM): 100 nM

SMILES: COCc1nc(C)ncc1OC[C@@]1(c2ccc(F)cc2)C[C@H]1C(=O)Nc1ccc(Cl)cn1 [Example 204, (1R,2S)-N-(5-chloropyridin-2-yl)-2-(4-fluorophenyl)-2-{[(4-methoxymethyl-2-methylpyrimidin-5-yl)oxy]methyl}cyclopropanecarboxamide]
- IC50 (OX1; [1]): 22 nM
- IC50 (OX2; read-out: OX2 (IC50)): 5 nM

SMILES: CCc1nc(C)ncc1OC[C@@]1(c2ccc(F)cc2)C[C@H]1C(=O)Nc1cc(C)c(F)cn1 [Example 248, (1R,2S)-2-{[(4-ethyl-2-methylpyrimidin-5-yl)oxy]methyl}-N-(5-fluoro-4-methylpyridin-2-yl)-2-(4-fluorophenyl)cyclopropanecarboxamide]
- IC50 (OX1; [1]): 10 nM
- IC50 (OX2; read-out: OX2 (IC50)): 3 nM

SMILES: Cc1ncc(OC[C@@]2(c3ccccc3)C[C@H]2C(=O)Nc2cc(C#N)ccn2)c(C)n1 [Example 46]
- IC50 (OX1; [1]): 423 nM
- IC50 (OX2; read-out: OX2 (IC50)): 43 nM

SMILES: Cc1ncc(OC[C@@]2(c3cccc(F)c3)C[C@H]2C(=O)Nc2ccc(CF)cn2)c(C)n1 [Example 282]
- IC50 (OX1): 21 nM
- IC50 (OX2; OX2 (IC50) nM): 2.4 nM

SMILES: Cc1nc(C)c(OC[C@@]2(c3cccc(F)c3)C[C@H]2C(=O)Nc2ccc(F)cn2)c(=O)[nH]1 [Example 326, (1R,2S)-2-{[(2,4-dimethyl-6-oxo-1,6-dihydropyrimidin-5-yl)oxy]methyl}-2-(3-fluorophenyl)-N-(5-fluoropyridin-2-yl)cyclopropanecarboxamide]
- IC50 (OX1): 123 nM
- IC50 (OX2; OX2 (IC50) nM): 6 nM

SMILES: COCc1nc(C)ncc1OC[C@@]1(c2cccc(F)c2)C[C@H]1C(=O)Nc1cccc(F)c1 [Example 195, (1R,2S)-N,2-bis(3-fluorophenyl)-2-{[(4-methoxymethyl-2-methylpyrimidin-5-yl)oxy]methyl}cyclopropanecarboxamide]
- IC50 (OX1; [1]): 6 nM
- IC50 (OX2; read-out: OX2 (IC50)): 3 nM

SMILES: Cc1ncc(OC[C@@]2(c3ccccc3)C[C@H]2C(=O)Nc2cccc(CCO)c2)c(C)n1 [Example 40]
- IC50 (OX1; [1]): 172 nM
- IC50 (OX2; read-out: OX2 (IC50)): 9 nM

SMILES: Cc1ncc(OC[C@@]2(c3ccc(F)c(F)c3)C[C@H]2C(=O)Nc2ccc(F)cc2F)c(C)n1 [Example 171]
- IC50 (OX1; [1]): 43 nM
- IC50 (OX2; read-out: OX2 (IC50)): 11 nM

SMILES: Cc1ncc(OC[C@@]2(c3ccccc3)C[C@H]2C(=O)Nc2cccc(N(C)C)c2)c(C)n1 [Example 19, (1R,2S)-N-[3-(dimethylamino)phenyl]-2-{[(2,4-dimethylpyrimidin-5-yl)oxy]methyl}-2-phenylcyclopropanecarboxamide]
- IC50 (OX1; [1]): 93 nM
- IC50 (OX2; read-out: OX2 (IC50)): 10 nM

SMILES: Cc1ncc(OC[C@@]2(c3ccccc3)C[C@H]2C(=O)Nc2ccc(C(F)(F)F)cn2)c(C)n1 [Example 5]
- IC50 (OX1; [1]): 145 nM
- IC50 (OX2; read-out: OX2 (IC50)): 38 nM

SMILES: COc1cc(NC(=O)[C@@H]2C[C@@]2(COc2cnc(C)nc2C)c2ccccc2)cnc1F [Example 327, (1R,2S)-2-{[(2,4-dimethylpyrimidin-5-yl)oxy]methyl}-N-(6-fluoro-5-methoxypyridin-3-yl)-2-phenylcyclopropanecarboxamide]
- IC50 (OX1; [1]): 192 nM
- IC50 (OX2; read-out: OX2 (IC50)): 3 nM

SMILES: COCc1nc(C)ncc1OC[C@@]1(c2ccc(F)c(F)c2)C[C@H]1C(=O)Nc1ccc(F)cc1 [Example 213]
- IC50 (OX1; [1]): 14 nM
- IC50 (OX2; read-out: OX2 (IC50)): 11 nM

SMILES: COCc1nc(C)ncc1OC[C@@]1(c2cccc(Cl)c2)C[C@H]1C(=O)Nc1ccccn1 [Example 225, (1R,2S)-2-(3-chlorophenyl)-2-{[(4-methoxymethyl-2-methylpyrimidin-5-yl)oxy]methyl}-N-(pyridin-2-yl)cyclopropanecarboxamide]
- IC50 (OX1; [1]): 6 nM
- IC50 (OX2; read-out: OX2 (IC50)): 3 nM

SMILES: Cc1ncc(OC[C@@]2(c3cc(F)cc(F)c3)C[C@H]2C(=O)Nc2ccc(F)c(F)c2)c(C)n1 [Example 134, (1R,2S)-N-(3,4-difluorophenyl)-2-(3,5-difluorophenyl)-2-{[(2,4-dimethylpyrimidin-5-yl)oxy]methyl}cyclopropanecarboxamide]
- IC50 (OX1; [1]): < 2 nM
- IC50 (OX2; read-out: OX2 (IC50)): 4 nM

SMILES: Cc1ncc(OC[C@@]2(c3cc(F)cc(F)c3)C[C@H]2c2nc3ncc(F)cc3[nH]2)c(C)n1 [Example 306, 2-{(1R,2S)-2-(3,5-difluorophenyl)-2-{[(2,4-dimethylpyrimidin-5-yl)oxy]methyl}cyclopropyl}-6-fluoro-1H-imidazo[4,5-b]pyridine]
- IC50 (OX1; [1]): 15 nM
- IC50 (OX2; read-out: OX2 (IC50)): 8 nM

SMILES: CCc1nc(C)ncc1OC[C@@]1(c2ccccc2)C[C@H]1C(=O)Nc1cncc(OC)c1 [Example 317]
- IC50 (OX1; [1]): 451 nM
- IC50 (OX2; read-out: OX2 (IC50)): 20 nM

SMILES: Cc1ncc(N(C)C[C@@]2(c3cccc(F)c3)C[C@H]2C(=O)Nc2ccc(F)c(F)c2)c(C)n1 [Example 296]
- IC50 (OX1; [1]): > 200 nM
- IC50 (OX2; read-out: OX2 (IC50)): 8 nM

SMILES: Cc1ncc(OC[C@@]2(c3ccccc3)C[C@H]2C(=O)Nc2cc3ccccc3cn2)c(C)n1 [Example 52]
- IC50 (OX1; [1]): 37 nM
- IC50 (OX2; read-out: OX2 (IC50)): 28 nM

SMILES: COc1ccnc(NC(=O)[C@@H]2C[C@@]2(COc2cnc(C)nc2C)c2ccccc2)c1 [Example 50]
- IC50 (OX1): 12 nM
- IC50 (OX2; OX2 (IC50) nM): 13 nM
